Measured values from US11136409B2, “Compositions and methods for identification, assessment, prevention, and treatment of AML using USP10 biomarkers and modulators” (Dana-Farber Cancer Institute, Inc., priority 2016, dated 2021).
Where two headings read alike, the source gives them in different places.

How the values were obtained:
[1] = tested on: MV4,11; experiment: Anti-proliferation, 24 hr treatment (CellTiter-Glo); assay type: cell-based, human; conditions: read-out: Anti-proliferation IC50
Text: (§1) Nomo-1, P31-FUJ, and NB4 were obtained from Dr. Gary Gilliland. MV4, 11 cells were obtained from Dr. Anthony Letai. Hel, K562, THP, U937, TF-1 and K052 cells were purchased from the American Type Culture Collection (ATCC) (Manassas, Va., USA). […] Cell lines were submitted for cell line authentication and were authenticated within 6 months of manuscript preparation through cell line short tandem repeat (STR) profiling (DDC Medical, Fairfield, Ohio and Molecular Diagnostics Laboratory, Dana Farber Cancer Institute). […] PBMCs were generously provided by Dr. Steven Treon and Dr. Guang Yang.
(§2) The CellTiter-Glo® assay (Promega, Madison, Wis.) was used for proliferation studies and carried out according to manufacturer instructions. Cell viability is reported as percentage of control (untreated) cells, and error bars represent the standard error of the mean for each data point.

[2] = tested on: NOMO-1; experiment: as above; assay type: cell-based, human; conditions: read-out: Anti-proliferation IC50
Text: as §1, §2

[3] = tested on: OCI-AML5; experiment: as above; assay type: cell-based, human; conditions: read-out: Anti-proliferation IC50
Text: as §1, §2

[4] = tested on: P31; experiment: as above; assay type: cell-based, human; conditions: read-out: Anti-proliferation IC50
Text: as §1, §2

[5] = tested on: TF-1; experiment: as above; assay type: cell-based, human; conditions: read-out: Anti-proliferation IC50
Text: as §1, §2

[6] = tested on: HEL; experiment: as above; assay type: cell-based, human; conditions: read-out: Anti-proliferation IC50
Text: as §1, §2

[7] = tested on: MOLM13-luc+; experiment: as above; assay type: cell-based, human; conditions: read-out: Anti-proliferation IC50
Text: as §1, §2

[8] = tested on: NB4-luc+; experiment: as above; assay type: cell-based, human; conditions: read-out: Anti-proliferation IC50
Text: as §1, §2

[9] = tested on: U937; experiment: as above; assay type: cell-based, human; conditions: read-out: Anti-proliferation IC50
Text: as §1, §2

[10] = tested on: K052; experiment: as above; assay type: cell-based, human; conditions: read-out: Anti-proliferation IC50
Text: as §1, §2

[11] = tested on: MOLM14; experiment: as above; assay type: cell-based, human; conditions: read-out: Anti-proliferation IC50
Text: as §1, §2

[12] = tested on: K562; experiment: as above; assay type: cell-based, human; conditions: read-out: Anti-proliferation IC50
Text: as §1, §2

[13] = target: T1, human USP10 (residues 376-798) (Homo sapiens, UniProt Q14694); experiment: In vitro USP10 activity assay (Ubiquitin-AMC); assay type: biochemical; conditions: biochemical assay, FIG. 13B
T1 construct: A construct of human USP10 covering residues 376-798 in the pET28a vector; His-tag (cleaved yes); made in house; host or cells: E. coli BL21 (DE3)
T1 sequence (Q14694 376-798): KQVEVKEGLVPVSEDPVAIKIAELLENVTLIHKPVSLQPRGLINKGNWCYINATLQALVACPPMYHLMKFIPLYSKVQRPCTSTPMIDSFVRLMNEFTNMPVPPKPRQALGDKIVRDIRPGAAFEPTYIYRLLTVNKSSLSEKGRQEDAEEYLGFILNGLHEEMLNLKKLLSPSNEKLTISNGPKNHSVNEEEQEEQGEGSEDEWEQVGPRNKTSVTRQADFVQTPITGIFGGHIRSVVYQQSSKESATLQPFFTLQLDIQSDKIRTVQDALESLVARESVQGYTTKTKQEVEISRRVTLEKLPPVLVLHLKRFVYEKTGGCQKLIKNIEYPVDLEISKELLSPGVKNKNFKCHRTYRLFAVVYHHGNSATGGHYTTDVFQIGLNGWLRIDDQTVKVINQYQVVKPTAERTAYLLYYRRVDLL
Experimental: Protein expression and purification. A construct of human USP10 covering residues 376-798 in the pET28a vector was over-expressed in E. coli BL21 (DE3) in TB medium in the presence of […] of kanamycin. Cells were grown at 37° C. to an OD of 0.8, cooled to 17° C., induced with 500 μM isopropyl-1-thio-D-galactopyranoside, incubated overnight at 17° C., collected by centrifugation, and stored at −80° C. Cell pellets were sonicated in buffer A (50 mM HEPES (pH 7.5), 300 mM NaCl, 10% glycerol, 10 mM Imidazole, and 3 mM BME) and the resulting lysate was centrifuged at 30,000×g for 30 min. Ni-NTA beads (Qiagen) were mixed with lysate supernatant for 30 min and washed with buffer A. Beads were transferred to an FPLC-compatible column and the bound protein was washed with 15% buffer B (50 mM HEPES (pH 7.5), 300 mM NaCl, 10% glycerol, 300 mM Imidazole, and 3 mM BME) and eluted with 100% buffer B. Thrombin was added to the eluted protein and incubated at 4° C. overnight. The sample was then passed through a HiPrep 26/10 desalting column (GE Healthcare) pre-equilibrated with buffer A without imidazole, and the eluted protein was subjected to a second Ni-NTA step to remove His-tag and Thrombin. The eluent was concentrated and passed through a Superdex® 200 10/300GL column (GE Healthcare) in a buffer containing 20 mM HEPES (pH 7.5), 150 mM NaCl, and 1 mM DTT. Fractions were pooled, concentrated to 20 mg/ml, and frozen at −80° C.
In vitro USP10 activity assay. Recombinant USP10, residues 376-798, was tested for its activity in a Ubiquitin-AMC assay in presence or absence of inhibitors. For this assay, 10 nM USP10 were pre-incubated with different concentrations of inhibitors or DMSO as a control in 50 mM HEPES pH7.6, 0.5 mM EDTA, 11 uM ovalbumin, and 5 mM DTT. The reaction was incubated for 6 hours at room temperature prior to the addition of 2 uM Ubiquitin-AMC (Boston Biochem) substrate. The initial rate of the reaction was measured by collecting fluorescence data at one minute intervals over 30-minute period using a CLARIOstar® fluorescence plate reader at excitation and emission wavelength of 345 and 445 nm, respectively. The calculated initial rate values were plotted against inhibitor concentrations to determine IC50 values.

[14] = 24 hr treatment, MV4,11 (FLT3-ITD)
[15] = 24 hr treatment, NOMO-1 (FLT3 wt or null)
[16] = 24 hr treatment, OCI-AML5 (FLT3 wt or null)
[17] = 24 hr treatment, P31 (FLT3 wt or null)
[18] = 24 hr treatment, TF-1 (FLT3 null)
[19] = 24 hr treatment, HEL (FLT3 wt or null)
[20] = 24 hr treatment, MOLM13-luc+ (FLT3-ITD)
[21] = 24 hr treatment, NB4-luc+ (FLT3 wt or null)
[22] = 24 hr treatment, U937 (FLT3 wt or null)
[23] = 24 hr treatment, K052 (FLT3 wt or null)
[24] = 24 hr treatment, MOLM14 (FLT3-ITD)
[25] = 24 hr treatment, K562 (FLT3 wt or null)

SMILES	IC50 [1, 14]	IC50 [2, 15]	IC50 [3, 16]	IC50 [4, 17]	IC50 [5, 18]	IC50 [6, 19]	IC50 [7, 20]	IC50 [8, 21]	IC50 [9, 22]	IC50 [10, 23]	IC50 [11, 24]	IC50 [12, 25]	USP10 inhibition compared with HBX19818 [13]	further results
CN(CCCNC(=O)c1ccc2nc3c(c(Cl)c2c1)CCCC3)Cc1ccccc1 [HBX19818, reference compound]	–	–	–	–	–	–	–	–	–	–	–	–	–	IC50 ([1]; Homo sapiens, MV4-11, 24 h): 8.1 µM; IC50 ([2]; Homo sapiens, NOMO-1, 24 h): 16.1 µM; IC50 ([3]; Homo sapiens, OCI-AML-5, 24 h): 17.9 µM; IC50 ([4]; Homo sapiens, 24 h): 18.2 µM; IC50 ([5]; Homo sapiens, TF-1, 24 h): 12.8 µM; IC50 ([6]; Homo sapiens, HEL, 24 h): 25.7 µM; IC50 ([7]; Homo sapiens, 24 h): 4.4 µM; IC50 ([8]; Homo sapiens, 24 h): 16.4 µM; IC50 ([9]; Homo sapiens, U-937, 24 h): 20.7 µM; IC50 ([10]; Homo sapiens, K052, 24 h): 16.6 µM; IC50 ([11]; Homo sapiens, MOLM-14, 24 h): 9.6 µM; IC50 ([12]; Homo sapiens, K562, 24 h): 18.5 µM
O=C(NCCCN1CCN(Cc2ccccc2)CC1)c1ccc2nc3c(c(Cl)c2c1)CCCC3 [C598-0563]	9.7 µM	10.7 µM	17 µM	10.6 µM	10 µM	19.6 µM	8.8 µM	13.6 µM	13.7 µM	14.5 µM	9.9 µM	15.9 µM	comparably to HBX19818	–
CCN(CCCNC(=O)c1ccc2nc3c(c(Cl)c2c1)CCC3)Cc1ccccc1 [C673-0105]	7.5 µM	12.7 µM	19.5 µM	29 µM	12.5 µM	34.4 µM	7.9 µM	24.5 µM	16.2 µM	23.5 µM	10.1 µM	23.7 µM	comparably to HBX19818	–
CCCN(CCC)CCCNC(=O)c1ccc2c(Cl)c3c(nc2c1)CCCC3 [C598-0466]	4.1 µM	8.3 µM	8.6 µM	13.9 µM	10.7 µM	16.8 µM	2.9 µM	10.2 µM	12.9 µM	11.6 µM	5.2 µM	13.3 µM	more potent	–
